# Test results as given in patent publication US7071161B2, “Variants of corticotropin releasing hormone receptor Type 1 and uses thereof” (The University of Tennessee Research Corporation, priority 2001, dated 2006).
# T1: CRH-R1α (Homo sapiens, UniProt P34998)
# T1 construct: expressed in transfected cells; host or cells: COS cells, transient transfection with pCRFR1α
# T1 sequence (P34998 24-415): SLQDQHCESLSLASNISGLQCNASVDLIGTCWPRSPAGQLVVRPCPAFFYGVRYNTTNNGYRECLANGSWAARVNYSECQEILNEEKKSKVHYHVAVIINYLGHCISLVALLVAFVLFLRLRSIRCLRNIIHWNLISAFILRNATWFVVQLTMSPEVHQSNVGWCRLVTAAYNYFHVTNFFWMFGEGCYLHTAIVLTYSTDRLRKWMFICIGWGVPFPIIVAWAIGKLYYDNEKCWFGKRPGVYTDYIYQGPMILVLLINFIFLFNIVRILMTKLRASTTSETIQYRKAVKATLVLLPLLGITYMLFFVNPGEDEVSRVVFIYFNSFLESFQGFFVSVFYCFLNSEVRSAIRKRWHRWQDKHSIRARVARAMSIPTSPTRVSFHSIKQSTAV
# Key:
# CRH-R1 mRNA [1] = experiment: CRH-R1 isoform expression by nested RT-PCR in treated HaCaT immortalized keratinocytes; assay type: cell-based, human; conditions: 24 hours, result in words
# Description: (§1) In some experiments, SKMEL188, HaCaT and C4-1 cells were also treated with TPA, forskolin or a mixture of IBMX (3-isobutyl-1-methylxanthine) and dbcAMP (N6, 2′-O-dibutyryladenosine 3′:5′-cyclic monophosphate sodium) (all from Sigma). Briefly, the cells were transferred to 75 cm^2 flasks ( 10^6 cells/flask) and cultured for 24 hours in standard culture medium. Then the following compounds were added to the separate cultures: TPA (200 nM), forskolin (10^−5 M), IBMX (5×10^−4 M), and dbcAMP (10^−3 M). Controls were represented by untreated cultures. The cells were incubated for 24 hours, detached, collected by centrifugation, and dissolved in RNA isolation solution (Trizol reagent).
# (§2) Total RNA was extracted using a Trizol isolation kit (Gibco-BRL, Gaithersburg, Md.). The synthesis of first-strand cDNA was performed using the Superscript preamplification system (Gibco-BRL). Five μg of total RNA per reaction was reverse transcribed using oligo(dT) as the primer.
# (§3) Nested PCR was used to detect different CRH-R1 isoforms. The first round of amplification of the human CRH-R1 fragment spanning exons 2–7 was conducted using 2 μl of cDNA and primers P110: 5′-[…]-3′ (sense) (SEQ ID No. 15) and P111: 5′-[…]-3′ (antisense) (SEQ ID No. 16). An aliquot of the PCR mixture from the first round of amplification was transferred to a new tube, and a second round of PCR was conducted. […]
# CRH-R1 mRNA [2] = experiment: CRH-R1 isoform expression by nested RT-PCR in treated SKMEL188 melanoma cells; assay type: cell-based; conditions: human melanoma cells SKMEL188; 24 hours; result in words
# Description: as §1, §2, §3
# CRH-R1α = target: T1, CRH-R1α; experiment: cAMP accumulation in CRF or urocortin-stimulated COS cells cotransfected with CRH-R1α and isoform e or h; assay type: cell-based; conditions: coexpression of the isoform with CRH-R1α, FIG. 7C
# Description: COS cells were propagated in DMEM medium (GIBCO) supplemented with 10% Fetal Bovine serum and antibiotics (GIBCO). Ten thousand cells were routinely transfected in each well of opaque 96-well plate (Packard) by Lipophectamine (Invitrogen, Carlsbad, Calif.) according to the manufacturer's protocol.
# Receptor isoforms e and h were tested for their ability to produce soluble forms of the CRH receptor that would affect the activity of the most prevalent CRH-R1α isoform. To allow detection by immunoblotting, a cDNA for the V5 protein was attached to the cDNA for the isoforms in the constructs. The constructs were thus transfected into COS cells and tested as to whether the isoform messages were translatable, and whether cotransfection of CRH-R1α with CRH-R1e or h affects the activity of CRH-R1α.
# Cyclic AMP concentration was measured by a cAMP functional assay kit (Packard BioScience, Meriden, Conn.). Stimulated cells were washed 3 times by PBS and incubated for 1 hour in 25 μl of lysis buffer at room temperature. The signal was measured using a Fusion α instrument (Packard BioScience), and cAMP concentrations were recalculated from the standard curve.
CRH or urocortin-stimulated cAMP accumulation mediated by CRF-R1α (CRH-R1α),CRH or urocortin-stimulated cAMP accumulation mediated by CRF-R1α (CRH-R1α; listed as CRF-R1h),Molecule,change of CRH-R1 splicing pattern versus untreated control (CRH-R1 mRNA [1]),change of CRH-R1 splicing pattern versus untreated control (CRH-R1 mRNA [2])
,,"CCCCCCCCCCCCCC(=O)O[C@@H]1[C@@H](C)[C@@]2(O)[C@@H](C=C(CO)C[C@]3(O)C(=O)C(C)=C[C@@H]23)[C@@H]2C(C)(C)[C@]12OC(C)=O [TPA, phorbol 12-myristate 13-acetate]",induced insertion of a 110 bp fragment between exons 4 and 5 of CRH-R1,shifted the CRH-R1 splicing pattern from the CRH-R1d to the CRH-R1α isoform
inhibits,stimulates,"CRH-R1h: human CRH receptor type 1 isoform with cryptic exon between exons 4 and 5; truncated protein with CRH-binding domain only (protein, listed as Homo sapiens, amino acid sequence of human CRH-R1h gene GenBank Accession No. AF374231) MGGHPQLRLVKALLLLGLNPVSASLQDQHCESLSLASNISGLQCNASVDLIGTCWPRSPAGQLVVRPCPAFFYGVRYNTTNNGYRECLANGSWAARVNYSECQEILNEEEPGTQAQPGRAHRGGT",,
